Values belong to the molecule of their own block, whether it stands above or below them.
Columns and labels:
CHO cells [1] = test: Cell cycle analysis: propidium iodide staining and FACS; type: cell-based, Chinese hamster; conditions: 5 microM
Description: (§1) In one set of experiments, a cell cycle analysis was performed for various cell cycle inhibitory compounds. Briefly, CHO cells are grown in 24 deep well plate (for example, Corning Axygen deep well plates; Corning, Amsterdam, The Netherlands), using standard cell-culture medium, under conditions promoting growth of the cells (for example 36 degreesC, 5% CO2) in the presence of various cell cycle inhibitors. Samples are collected at various time points, and cell cycle profiles are obtained by propidium iodide (PI) staining followed by fluorescence-activated cell sorting (FACS) analysis. Results for compounds 6-acetyl-8-cyclopentyl-5-methyl-2-((5-(1-piperazinyl)-2-pyridinyl)amino)pyrido[2,3-d][…] (Compound A) and N-(6-(4-(dimethylamino)-1-piperidinyl)-3-pyridazinyl)-9-(trans-4-methylcyclohexyl)-9H-pyrido[4′,3′,:4,5]pyrrolo[2,3-d]pyrimidin-2-amine (Compound B) are shown in Table 1 below.

[2] = system: transfected CHO cells expressing recombinant human monoclonal antibody (cell line 2); test: 24-deep well culture, cell line 2: VCD, viability, titer, qP; type: cell-based, Chinese hamster
Description: (§2) Transfected CHO cells expressing a recombinant human monoclonal antibody (mAb) are cultured in 24-deep well plates with seeding density at 1×10^7/mL for five days. At certain time periods, samples of the cultures are taken and evaluated for viable cell density (VCD; expressed in 10^6 cells/mL); percent viability (as determined by trypan blue exclusion); titer of recombinant protein (expressed in grams of protein per liter of culture, or g/L, as determined by Protein A affinity HPLC); qP, or specific productivity (expressed in picograms of recombinant protein per cell per day, or pg/c/d), the presence or absence of high molecular weight substances (usually an indicator of protein aggregation; expressed as % of the total protein); and the relative percentage of Mannose 5, a major intermediate glyco-form that attaches to N297 of the mAb. N-linked glycosylation has an impact on the tertiary structure of the antibody and may affect Fc mediated antibody effector functions. The majority of the human Fc glycans are complex biantennary structures with galactose as the prevalent terminal sugar. Immature glyco-forms, such as high-mannose glycol-forms (Man5-9), are of concern due to potential higher plasma clearance rate (as compared to the clearance rate of complex glycan linked mAbs).
(§3) Compounds are further evaluated essentially as described in Example 2 herein. Briefly, transfected CHO cells expressing recombinant human monoclonal antibody (mAb; two different cell lines expressing two different mAb, referred to as cell line 1 and cell line 2) are cultured in 24-deep well plates in the presence or absence of the compounds. At specified time points, samples of the cultures are taken and evaluated for viable cell density (VCD; expressed in 10^6 cells/mL); percent viability (as determined by any method known in the art); titer of recombinant protein (expressed in grams of protein per liter of culture, or g/L, as determined by Protein A affinity HPLC); qP, or specific productivity (expressed in picograms of recombinant protein per cell per day, or pg/c/d). Additional parameters measure include the presence or absence of high molecular weight substances (usually an indicator of protein aggregation; expressed as % of the total protein); and the relative percentage of Mannose 5. For comparison purposes, Compounds A and B, which had been previously tested, were tested again.

Colo205 = test: [14C]-thymidine incorporation cell proliferation inhibition assay; type: cell-based; conditions: Homo sapiens, COLO 205, 72 hour incubation
Description: The cell proliferation inhibition potency of the cell cycle inhibitors was determined by using a [^14C]-thymidine incorporation assay. Exponentially growing cells (Colo205) were seeded in a 96-well Cytostar T plate (GE Healthcare Biosciences) at a density of 5×10^3 cells/well and incubated overnight. Serially diluted compounds and 0.1 μCi of [^14C]-thymidine (GE Healthcare Biosciences) were added to each well on the following day. After 72 hour incubation, isotope incorporation was determined with a β plate counter (Wallac). IC50 values of the compounds in the above assays were determined by non-linear regression analysis using Prism (GraphPad Software).

[3] = system: transfected CHO cells expressing recombinant human monoclonal antibody (cell line 1); test: 24-deep well culture, cell line 1: VCD, viability, titer, qP; type: cell-based, Chinese hamster; conditions: for Titer / VCD / Viability / qP: Cell Line 1, 5 microM
Description: as §2, §3

CDK4/Cyclin D1 = target: T1, CDK4/Cyclin D1 (Homo sapiens, UniProt P11802); test: CDK4 filtration kinase assay; type: biochemical; conditions: CDK4/Cyclin D1, Rb fragment substrate, [33P]-ATP
T1 construct: purchased Cell Signaling Technology
Description: The CDK4 inhibitory activity of the cell cycle inhibitors was determined with a filtration kinase assay. The compounds, kinase and substrate diluted in the kinase buffer (20 mM Tris, pH7.4, 50 mM NaCl, 1 mM DTT, 0.1% BSA) were sequentially added to a 96-well Multiscreen HTS filtration plate (Millipore). The final 100 μL reaction mixture in each well contained 0.3 μg of CDK4/Cyclin D1 (Cell Signaling Technology), 1 μg of Rb fragment (aa773-928, Millipore) for the CDK4 assay and 1 μCi of [^33P]-ATP. The mixture was incubated at room temperature for 1 hour. The proteins in the reaction were then precipitated and washed with cold TCA solution using an aspiration/filtration vacuum system. The plates were dried at room temperature, and the retained radioactivity was measured by scintillation counting. IC50 values of the compounds in the above assays were determined by non-linear regression analysis using Prism (GraphPad Software).

[4] = system: mammalian cells such as CHO cells; test: Predicted specific productivity of recombinant protein for Compound M; type: cell-based, Chinese hamster; conditions: predicted from Table 4, structural similarity, CDK4 assay and cell proliferation assay
CHO cells [5] = test: Initial dosage and time course study: cell viability and growth arrest (Table 4); type: cell-based, Chinese hamster
Description: as §1
Various compounds were tested in an initial dosage and time course study to ascertain their effects on cell viability and growth phase arrest substantially as described previously in Example 1. Compounds were evaluated for effect, or lack thereof, on viability, as well as their ability to cause growth arrest. Compounds that maintained at least 80% cell viability at one or more concentrations for the five day duration of this assay were regarded as having relatively little or no cell cytotoxicity.

T1 sequence (P11802 whole entry, species assumed, the tested form may be a part): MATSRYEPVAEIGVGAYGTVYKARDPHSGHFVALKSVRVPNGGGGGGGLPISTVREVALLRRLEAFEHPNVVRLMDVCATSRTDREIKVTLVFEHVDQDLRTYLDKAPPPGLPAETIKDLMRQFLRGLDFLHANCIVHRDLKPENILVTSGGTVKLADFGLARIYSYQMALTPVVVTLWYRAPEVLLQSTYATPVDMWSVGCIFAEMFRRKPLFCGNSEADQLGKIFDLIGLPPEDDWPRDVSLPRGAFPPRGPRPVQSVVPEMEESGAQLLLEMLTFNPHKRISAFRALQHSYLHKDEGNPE
T1 sequence (P24385 whole entry partner, species assumed, the tested form may be a part): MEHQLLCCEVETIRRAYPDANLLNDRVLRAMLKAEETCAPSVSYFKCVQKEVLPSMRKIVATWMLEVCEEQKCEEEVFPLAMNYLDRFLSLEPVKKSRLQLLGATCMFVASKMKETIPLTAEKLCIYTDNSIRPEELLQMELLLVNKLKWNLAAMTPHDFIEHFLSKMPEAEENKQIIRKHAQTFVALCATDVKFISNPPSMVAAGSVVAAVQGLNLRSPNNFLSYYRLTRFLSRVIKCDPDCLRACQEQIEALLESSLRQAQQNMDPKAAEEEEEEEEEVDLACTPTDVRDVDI

IC50 (Colo205): 14.8 nM
IC50 (CDK4/Cyclin D1): 2.75 nM
SMILES: CN(C)C1CCN(c2ccc(Nc3ncc4c5ccncc5n([C@H]5CC[C@H](C)CC5)c4n3)nn2)CC1 [Compound B, N-(6-(4-(dimethylamino)-1-piperidinyl)-3-pyridazinyl)-9-(trans-4-methylcyclohexyl)-9H-pyrido[4′,3′,:4,5]pyrrolo[2,3-d]pyrimidin-2-amine]
Cell Cycle Distribution (%) G1 (CHO cells [1]; Day 1): 91.22%
Cell Cycle Distribution (%) G2/M (CHO cells [1]; Day 1): 2.74%
Cell Cycle Distribution (%) S (CHO cells [1]; Day 1): 6.04%
Cell Cycle Distribution (%) G1 (CHO cells [1]; Day 2): 74.82%
Cell Cycle Distribution (%) G2/M (CHO cells [1]; Day 2): 5.75%
Cell Cycle Distribution (%) S (CHO cells [1]; Day 2): 19.43%
Cell Cycle Distribution (%) G1 (CHO cells [1]; Day 3): 79.21%
Cell Cycle Distribution (%) G2/M (CHO cells [1]; Day 3): 3.49%
Cell Cycle Distribution (%) S (CHO cells [1]; Day 3): 17.3%
Cell Cycle Distribution (%) G1 (CHO cells [1]; Day 4): 78.68%
Cell Cycle Distribution (%) G2/M (CHO cells [1]; Day 4): 6.13%
Cell Cycle Distribution (%) S (CHO cells [1]; Day 4): 15.19%
Titer ([2]; 5 microM, D 1): 0.29 g/L
VCD ([2]; 5 microM, D 1): 10.88 e6/mL
Viability ([2]; 5 microM, D 1): 95.11%
qP ([2]; 5 microM, D 1): 26.34 pg/c/d
Titer ([2]; 5 microM, D 2): 0.49 g/L
VCD ([2]; 5 microM, D 2): 11.15 e6/mL
Viability ([2]; 5 microM, D 2): 89.60%
qP ([2]; 5 microM, D 2): 43.95 pg/c/d
Titer ([2]; 5 microM, D 3): 0.62 g/L
VCD ([2]; 5 microM, D 3): 13.45 e6/mL
Viability ([2]; 5 microM, D 3): 87.50%
qP ([2]; 5 microM, D 3): 46.35 pg/c/d
Titer ([2]; 5 microM, D 4): 0.89 g/L
VCD ([2]; 5 microM, D 4): 20.16 e6/mL
Viability ([2]; 5 microM, D 4): 87.46%
qP ([2]; 5 microM, D 4): 43.97 pg/c/d
Titer ([3]; D 1): 0.47 g/L
VCD ([3]; D 1): 10.95 e6/mL
Viability ([3]; D 1): 94.83%
qP ([3]; D 1): 42.90 pg/c/d
Titer ([3]; D 2): 0.70 g/L
VCD ([3]; D 2): 9.61 e6/mL
Viability ([3]; D 2): 85.63%
qP ([3]; D 2): 72.84 pg/c/d
Titer ([3]; D 3): 0.96 g/L
VCD ([3]; D 3): 10.14 e6/mL
Viability ([3]; D 3): 82.33%
qP ([3]; D 3): 94.99 pg/c/d
Titer ([3]; D 4): 1.19 g/L
VCD ([3]; D 4): 12.66 e6/mL
Viability ([3]; D 4): 78.87%
qP ([3]; D 4): 94.23 pg/c/d
effect on viability ([3]; summary of Table 2): greater (but still modest) decreases in viability
growth arrest ([3]; summary of Table 2): more sustained growth arrest

IC50 (Colo205): 23.5 nM
IC50 (CDK4/Cyclin D1): 1.4 nM
SMILES: CN(C)C1CCN(c2ccc(Nc3ncc4c(n3)C3(C=CC(C)(C)CC3)c3cnccc3-4)nc2)CC1 (stereo not drawn) [Compound L, N-(5-(4-(dimethylamino)piperidin-1-yl)pyridin-2-yl)-4,4-dimethylspiro[cyclohex[2]ene-1,9′-pyrido[4′,3′:3,4]cyclopenta[1,2-d]pyrimidin]-2′-amine]
Titer ([2]; 1.2 microM, D 1): 0.28 g/L
VCD ([2]; 1.2 microM, D 1): 11.76 e6/mL
Viability ([2]; 1.2 microM, D 1): 94.88%
qP ([2]; 1.2 microM, D 1): 23.81 pg/c/d
Titer ([2]; 1.2 microM, D 2): 0.49 g/L
VCD ([2]; 1.2 microM, D 2): 13.63 e6/mL
Viability ([2]; 1.2 microM, D 2): 92.63%
qP ([2]; 1.2 microM, D 2): 35.94 pg/c/d
Titer ([2]; 1.2 microM, D 3): 0.58 g/L
VCD ([2]; 1.2 microM, D 3): 18.56 e6/mL
Viability ([2]; 1.2 microM, D 3): 92.09%
qP ([2]; 1.2 microM, D 3): 31.42 pg/c/d
Titer ([2]; 1.2 microM, D 4): 0.70 g/L
VCD ([2]; 1.2 microM, D 4): 26.40 e6/mL
Viability ([2]; 1.2 microM, D 4): 91.17%
qP ([2]; 1.2 microM, D 4): 26.64 pg/c/d
Titer ([2]; 2.4 microM, D 1): 0.28 g/L
VCD ([2]; 2.4 microM, D 1): 11.43 e6/mL
Viability ([2]; 2.4 microM, D 1): 94.24%
qP ([2]; 2.4 microM, D 1): 24.20 pg/c/d
Titer ([2]; 2.4 microM, D 2): 0.47 g/L
VCD ([2]; 2.4 microM, D 2): 12.95 e6/mL
Viability ([2]; 2.4 microM, D 2): 91.47%
qP ([2]; 2.4 microM, D 2): 36.29 pg/c/d
Titer ([2]; 2.4 microM, D 3): 0.60 g/L
VCD ([2]; 2.4 microM, D 3): 16.19 e6/mL
Viability ([2]; 2.4 microM, D 3): 90.68%
qP ([2]; 2.4 microM, D 3): 37.05 pg/c/d
Titer ([2]; 2.4 microM, D 4): 0.76 g/L
VCD ([2]; 2.4 microM, D 4): 24.27 e6/mL
Viability ([2]; 2.4 microM, D 4): 91.43%
qP ([2]; 2.4 microM, D 4): 31.18 pg/c/d

IC50 (Colo205): 92 nM
IC50 (CDK4/Cyclin D1): 15 nM
SMILES: CC(=O)c1c(C)c2cnc(Nc3ccc(N4CCNCC4)nn3)nc2n(C2CCCC2)c1=O [Compound M, 6-acetyl-8-cyclopentyl-5-methyl-2-((6-(piperazin-1-yl)pyridazin-3-yl)amino)pyrido[2,3-d]pyrimidin-7(8H)-one]
increase in specific productivity (qP) of recombinant protein [4]: > 200%
VCD (CHO cells [5]; 2.5 microM, D 1): 0.4656 e6/mL
VCD (CHO cells [5]; 2.5 microM, D 2): 0.6879 e6/mL
Viability (CHO cells [5]; 2.5 microM, D 2): 97.90%
VCD (CHO cells [5]; 2.5 microM, D 3): 1.1916 e6/mL
Viability (CHO cells [5]; 2.5 microM, D 3): 97.65%
VCD (CHO cells [5]; 2.5 microM, D 4): 2.1883 e6/mL
Viability (CHO cells [5]; 2.5 microM, D 4): 96.47%
VCD (CHO cells [5]; 5 microM, D 1): 0.4129 e6/mL
VCD (CHO cells [5]; 5 microM, D 2): 0.5439 e6/mL
Viability (CHO cells [5]; 5 microM, D 2): 97.90%
VCD (CHO cells [5]; 5 microM, D 3): 0.8760 e6/mL
Viability (CHO cells [5]; 5 microM, D 3): 97.67%
VCD (CHO cells [5]; 5 microM, D 4): 1.4543 e6/mL
Viability (CHO cells [5]; 5 microM, D 4): 95.90%
VCD (CHO cells [5]; 10 microM, D 1): 0.4204 e6/mL
VCD (CHO cells [5]; 10 microM, D 2): 0.4984 e6/mL
Viability (CHO cells [5]; 10 microM, D 2): 97.90%
VCD (CHO cells [5]; 10 microM, D 3): 0.7601 e6/mL
Viability (CHO cells [5]; 10 microM, D 3): 97.06%
VCD (CHO cells [5]; 10 microM, D 4): 1.2297 e6/mL
Viability (CHO cells [5]; 10 microM, D 4): 95.85%
VCD (CHO cells [5]; 20 microM, D 1): 0.3915 e6/mL
VCD (CHO cells [5]; 20 microM, D 2): 0.4101 e6/mL
Viability (CHO cells [5]; 20 microM, D 2): 97.90%
VCD (CHO cells [5]; 20 microM, D 3): 0.5348 e6/mL
Viability (CHO cells [5]; 20 microM, D 3): 97.31%
VCD (CHO cells [5]; 20 microM, D 4): 0.8023 e6/mL
Viability (CHO cells [5]; 20 microM, D 4): 96.04%
cytotoxicity and growth arrest properties (CHO cells [5]; compared with Compound A): very similar, at similar concentrations, to the properties of Compound A
